US11286263B2, “Macrocyclic fluorine substituted indole derivatives” (The Broad Institute, Inc., priority 2017, dated 2022)
“And” between values parts separate entries of the source, which are not always exact repeats. Identical values can stand only once. Like-named read-outs stand apart in the source and are kept apart here.

Assays:
[1] = system: SUDHL5; assay: Induction of cytotoxicity, SUDHL5 (Assay 6); conditions: read-out: IC50 Cytotox SUDHL5 [M] (median), SUDHL5 cells, 5 h, CellTiter-Glo
[2] = system: SUDHL5; assay: Antiproliferation assay SUDHL5 (Assay 7); format: cell-based; conditions: SUDHL5 cells, CellTiter-Glo, median, read-out: IC50 Antiproli SUDHL5 [M] (median)
Outline: (§1)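 A reference plate measured at day 0 set the time-zero baseline. Treated plates were read by CellTiter-Glo luminescence after 72 h of compound exposure at 37°C in a humidified incubator.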

[3] = system: A2780; assay: Antiproliferation assay A2780 (Assay 7); format: cell-based; conditions: A2780 cells, CellTiter-Glo, single determinations, read-out: IC50 Antiproli A2780
Outline: as §1

[4] = system: SUDHL10; assay: Induction of cytotoxicity, SUDHL10 (Assay 6); conditions: read-out: IC50 Cytotox SUDHL10 [M] (median), SUDHL10 cells, 5 h, CellTiter-Glo
Description: In principle, compounds that induce apoptosis will concomitantly induce cell cytotoxicity. Therefore, cytotoxicity assays were run in parallel in SUDHL5 and SUDHL10 cells.
The different cell lines were plated in culture medium (RPMI 1640 [GIBCO #22400-089] supplemented with 10% Fetal Bovine Serum) at a density of 3,300 cells in 30 μl/well in a sterile, solid black, flat bottom, polystyrene, TC-treated 384-well microplate (Corning #3571) using Multidrop Combi Reagent Dispenser. As a control, medium without cells was also added to the plate. Cells were incubated in a humidified incubator at 37° C. overnight. On the next day, the cells were treated with compounds (stock solution, 10 mM in DMSO) using the HP D300 Digital Dispenser in a concentration range of 3.3×10e-5 M (33 μM) to 5×10e-9 M (5 nM) in a single-dot curve with at least 16 dilutions and a DMSO concentration of 0.33%. Rim wells were excluded. The cells were incubated for 5 h hours in a humidified incubator at 37° C. After this incubation, 30 μl of CellTiter-Glo® Luminescent Cell Viability reagent (Promega, G7573) was added to each well using the Multidrop Combi Reagent Dispenser, followed by 15 min incubation on a shaker at room temperature. Finally, luminescence was read at 0.1 ms, with a gain of 3000 using the PHERAstar FS microplate reader (BMG Labtech).
The Bella DRC Master Sheet was used to calculate IC50s, with fixed CI=0 and C0=1.

[5] = target: BCL-2 (Homo sapiens (Human), UniProt P10415); assay: Protein-protein interaction assay BCL-2/Bad BH3 peptide (BCL-2 assay), TR-FRET; format: binding; conditions: BCL-2/Bad BH3 peptide TR-FRET; median
Description: Assay 3 Protein-Protein Interaction assay: BCL-2/Bad BH3 Peptide (BCL-2 Assay)
The dose-dependent inhibition by the compounds described in this invention of the interaction between BCL-2 and the BH3 domain of Bad (both human) was determined using a steady state binding competition assay with time-resolved fluorescence energy transfer (TR-FRET) readout. For that purpose BCL-2 (amino acids 1-211, C-terminal fused to a hexahistidine (6× His) tag (SEQ ID 5) and a synthetic Bad BH3-derived peptide of sequence Biotin-PEG2-PEG2-NLWAAQRYGRELRR-Nle-SDEFVDSFKK-amide (SEQ ID 4) served as protein receptor and tracer ligand respectively. The recombinant BCL-2 protein (expressed in E. coli) was purchased from BPS Bioscience (San Diego, Calif., USA). The Bad BH3-derived peptide can be obtained from e.g. Biosyntan (Berlin, Germany).
In the assay 11 different concentrations of each compound (0.1 nM, 0.33 nM, 1.1 nM, 3.8 nM, 13 nM, 44 nM, 0.15 μM, 0.51 μM, 1.7 μM, 5.9 μM and 20 μM) were typically measured as duplicates in the same microtiter plate. For that, 100-fold concentrated DMSO solutions were prepared by serial dilutions (1:3.4) of a 2 mM stock solution in a clear, 384-well microtiter plate (Greiner Bio-One, Frickenhausen, Germany). From there, 50 nl were transferred in a dark test plate (Greiner Bio-One, Frickenhausen, Germany). The assay was initiated by addition of 2 μl of a 2,5-fold concentrated His-BCL-2 solution (usually for a 1 nM end concentration in 5 μl reaction volume) in aqueous assay buffer [50 mM Tris/HCl pH 7, 100 mM sodium chloride (NaCl), 50 mM potassium fluoride (KF), 0.005% Tween-20, 2 mM DTT, 0.1% bovine gamma globulin (BGG)] to the compounds in the assay plate. This was followed by a 10-minute incubation step at 22° C. for pre-equilibration of the putative complex between His-BCL-2 and the compounds. After that, 3 μl of a 1.67-fold concentrated solution (in assay buffer) consisting of Bad BH3-derived peptide (1 nM end concentration) and TR-FRET detection reagents [1.67 nM anti-His-Eu cryptate and 1.67 nM streptavidin-XL665 (both from Cisbio Bioassays, Codolet, France)], were added.
The mixture was incubated in the dark for one hour at 22° C. and then overnight at 4° C. The formation of BCL-2/Bad complexes was determined by measuring the resonance energy transfer of the anti-His-Eu-cryptate antibody to the streptavidin-XL665 present in the reaction. For that purpose, the fluorescence emission at 620 nm and 665 nm after excitation at 330-350 nm was measured in a TR-FRET measuring instrument, for instance a Rubystar or a Pherastar (both from BMG Lab Technologies, Offenburg, Germany) or a Viewlux (Perkin-Elmer). The ratio of the emission at 665 nm and at 622 nm was used as indicator of the amount of BCL-2/Bad complexes present.
The resulting data (ratio) were normalized, taking 0% inhibition as the mean value of control measurements (usually 32 data points) where all reagents were included. In this case 50 nl DMSO were used instead of compounds. A 100% inhibition corresponded to the mean value of control measurements (usually 32 data points) where all reagents except BCL-2 were included. IC50 values were determined by regression analysis based on a 4 parameter equation (minimum, maximum, IC50, Hill; Y=Max+(Min−Max)/(1+(X/IC50)^Hill) using the Screener Software (Genedata).

BCL-2, sequence (P10415 1-211): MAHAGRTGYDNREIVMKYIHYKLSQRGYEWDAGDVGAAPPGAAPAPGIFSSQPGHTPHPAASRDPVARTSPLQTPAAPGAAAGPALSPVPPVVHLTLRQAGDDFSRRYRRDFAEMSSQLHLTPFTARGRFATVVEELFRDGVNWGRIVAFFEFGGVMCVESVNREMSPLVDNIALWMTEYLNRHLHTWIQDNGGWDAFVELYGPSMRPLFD

Compound	IC50 ([1]; Homo sapiens, SU-DHL-5, 5 h)	IC50 ([2]; Homo sapiens, SU-DHL-5, 72 h)	IC50 ([3]; 72 h, listed as 01)	IC50 ([3]; Homo sapiens, A2780, 72 h)	IC50 ([4]; Homo sapiens, SU-DHL10, 5 h)	IC50 [5]	IC50 ([3]; 72 h, listed as 05)	IC50 [1]	IC50 ([2]; 72 h)	IC50 [4]	IC50 ([3]; 72 h)
Cc1c2c(nn1C)COC/C=C\Cn1c(C(=O)O)c(CCCOc3cccc4ccccc34)c3ccc(F)c-2c31 (racemic) [Example 1, (rac)-(11Z)-4-fluoro-2,3-dimethyl-7-[3-(naphthalen-1-yloxy)propyl]-2,10,13,15-tetrahydro-pyrazolo[4′,3′:9,10][1,6]oxazacycloundecino[8,7,6-hi]indole-8-carboxylic acid]	1.2e-06 M	9e-07 M	21.1 µM	> 33 µM	3.8e-06 M	> 20 µM					
CCc1c2c(nn1C)COC/C=C\Cn1c(C(=O)O)c(CCCOc3cccc4ccccc34)c3ccc(F)c-2c31 (racemic) [Example 5, (rac)-(11Z)-3-ethyl-4-fluoro-2-methyl-7-[3-(naphthalen-1-yloxy)propyl]-2,10,13,15-tetrahydro-pyrazolo[4′,3′:9,10][1,6]oxazacycloundecino[8,7,6-hi]indole-8-carboxylic acid]	1.5e-06 M	1.7e-06 M		25.4 µM	3.2e-06 M	> 20 µM	28.1 µM and 20.8 µM and 27.7 µM				
CCc1nn(C)c2c1-c1c(F)ccc3c(CCCOc4cccc5c4CCCC5)c(C(=O)O)n(c13)CCCCOC2 (racemic) [Example 44, (rac)-12-ethyl-13-fluoro-10-methyl-1-(3-((5,6,7,8-tetrahydronaphthalen-1-yl)oxy)propyl)-4,5,6,7,9,10-hexahydropyrazolo[4′,3′:9,10][1]oxa[6]azacycloundecino[8,7,6-hi]indole-2-carboxylic acid]	1.9e-06 M	5.5e-07 M			4.2e-06 M	> 20 µM					
CCc1nn(C)c2c1-c1c(F)ccc3c(CCCOc4cc(C)c(Cl)c(C)c4)c(C(=O)O)n(c13)CCCCOC2 (racemic) [Example 46, (rac)-1-(3-(4-chloro-3,5-dimethylphenoxy)propyl)-12-ethyl-13-fluoro-10-methyl-4,5,6,7,9,10-hexahydropyrazolo[4′,3′:9,10][1]oxa[6]azacycloundecino[8,7,6-hi]indole-2-carboxylic acid]	3.1e-06 M	2.9e-06 M			5.7e-06 M	> 20 µM					
CCc1c2c(nn1C)CN(C)CCCCn1c(C(=O)O)c(CCCOc3cccc4c3CCC4)c3ccc(F)c-2c31 (racemic) [Example 51, (rac)-7-[3-(2,3-dihydro-1H-inden-4-yloxy)propyl]-3-ethyl-4-fluoro-2,14-dimethyl-10,11,12,13,14,15-hexahydro-2H-pyrazolo[3′,4′:8,9][1,6]diazacycloundecino[10,11,1-hi]indole-8-carboxylic acid]	3.6e-07 M	2.6e-07 M			3.6e-07 M	> 20 µM					
CCc1c2c(nn1C)CN(C)CCCCn1c(C(=O)O)c(CCCOc3cccc4c3CCCC4)c3ccc(F)c-2c31 (racemic) [Example 52, (rac)-3-ethyl-4-fluoro-2,14-dimethyl-7-[3-(5,6,7,8-tetrahydronaphthalen-1-yloxy)propyl]-10,11,12,13,14,15-hexahydro-2H-pyrazolo[3′,4′:8,9][1,6]diazacycloundecino[10,11,1-hi]indole-8-carboxylic acid]	4.3e-07 M	2.3e-07 M			3.1e-07 M	> 20 µM					
CCc1c2c(nn1C)CN(C)CCCCn1c(C(=O)O)c(CCCOc3cccc4cc(F)ccc34)c3ccc(F)c-2c31 (racemic) [Example 53, (rac)-3-ethyl-4-fluoro-7-{3-[(6-fluoro-1-naphthyhoxy]propyl}-2,14-dimethyl-10,11,12,13,14,15-hexahydro-2H-pyrazolo[3′,4′:8,9][1,6]diazacycloundecino[10,11,1-hi]indole-8-carboxylic acid]	3.3e-07 M	3.7e-07 M			6.9e-07 M	> 20 µM					
CCc1c2c(nn1C)CN(C)CCCCn1c(C(=O)O)c(CCCOc3cccc4ccccc34)c3ccc(F)c-2c31 (racemic) [Example 54, (rac)-3-ethyl-4-fluoro-2,14-dimethyl-7-[3-(1-naphthyloxy)propyl]-10,11,12,13,14,15-hexahydro-2H-pyrazolo[3′,4′:8,9][1,6]diazacycloundecino[10,11,1-hi]indole-8-carboxylic acid]	4.5e-07 M	4.4e-07 M			1.4e-06 M	> 20 µM					
Cc1c2c(nn1C)COCCCCn1c(C(=O)O)c(CCCOc3ccc(F)c4ccccc34)c3ccc(F)c-2c31 (single isomer, unassigned; enantiomer 1) [Example 16, 4-fluoro-7-{3-[(4-fluoronaphthalen-1-yl)oxy]propyl}-2,3-dimethyl-2,10,11,12,13,15-hexahydro-pyrazolo[4′,3′:9,10][1,6]oxazacycloundecino[8,7,6-hi]indole-8-carboxylic acid (enantiomer 1)]						> 20 µM		1.4e-06 M	9.3e-07 M	4.3e-06 M	
CCc1c2c(nn1C)COCCCCn1c(C(=O)O)c(CCCOc3cccc4cc(F)ccc34)c3ccc(F)c-2c31 (single isomer, unassigned; enantiomer 1) [Example 24, 3-ethyl-4-fluoro-7-{3-[(6-fluoronaphthalen-1-yl)oxy]propyl}-2-methyl-2,10,11,12,13,15-hexahydropyrazolo[4′,3′:9,10][1,6]oxazacycloundecino[8,7,6-hi]indole-8-carboxylic acid (enantiomer 1)]						> 20 µM		3.9e-07 M	3.2e-07 M	6.8e-07 M	
CCc1nn(C)c2c1-c1c(F)ccc3c(CCCOc4ccc(F)c5ccccc45)c(C(=O)O)n(c13)CCCCOC2 (single isomer, unassigned; enantiomer 1) [Example 42, 3-ethyl-4-fluoro-7-{3-[(4-fluoronaphthalen-1-yl)oxy]propyl}-1-methyl-1,10,11,12,13,15-hexahydropyrazolo[4′,3′:9,10][1,6]oxazacycloundecino[8,7,6-hi]indole-8-carboxylic acid (enantiomer 1)]						> 20 µM		2e-06 M	2.1e-06 M	9.6e-06 M	
(rac)-1-(3-((2,3-dihydro-1H-inden-4-yl)oxy)propyl)-12-ethyl-13-fluoro-11-methyl-4,5,6,7,9,11-hexahydropyrazolo[4′,3′:9,10][1]oxa[6]azacycloundecino[8,7,6-hi]indole-2-carboxylic acid [Example 30]						> 20 µM			1.5e-06 M		11.2 µM
